“Also recorded” adds a separate entry of the source. Where two headings read alike, the source gives them in different places. Positions of bridges follow the written chain, without caps; N, C: chain ends. Non-standard residues stand in square brackets, D forms with d. Residues, ends and D or L forms follow the SMILES beside them. *: point of attachment. Biotin = O=C1N[C@H]2[C@H](CS[C@H]2CCCCC(=O)*)N1
How the values were obtained:
M2 macrophages [1] = experiment: Binding study of biotinylated peptides on polarized bone marrow-derived macrophages (streptavidin-FITC, flow cytometry); type: cell-based, mouse; details: for binding activity to M2 macrophages (in words): biotinylated peptide, on ice 20 min; for Kd: M2 macrophages, half-maximal MFI, read-out: apparent dissociation constant (KD)
Procedure: All animal handling protocols were approved by the University of Washington Institutional Animal Care and Use Committee. Bone marrow harvest was performed following the previously reported protocol. Briefly, femur and tibia were excised from 6-8 week-old female c57bl6/027 mice. Cuts were made on the ends of each bone, and RPMI 1640 medium was used to flush out bone marrow cells via 18G needle. The cells were cultured on petri dishes in RPMI 1640 medium supplemented with 20% donor horse serum, 1% antibiotic-antimycotic (AbAm), and 20 ng/mL M-CSF. After 7 d of culture, macrophages were activated by replacing M-CSF with 25 ng/mL IFN-γ and 100 ng/mL LPS for M1 macrophage or 25 ng/mL IL-4 for M2 macrophage. The macrophages were activated for 2 d and then scraped off the petri dishes with cell lifter for binding studies.
(§1) Peptide solutions at different concentrations for binding study were prepared by dilutions from the stock solution (10 mg/mL in dH2O) with PBS containing 1% BSA (PBSA). M1 and M2 macrophages (50,000 cells/well) were seeded on a black 96-well plate and incubated in the peptide solutions on ice for 20 min. Unbound peptides were washed off with PBSA twice. The macrophages were subsequently incubated with streptavidin-FITC for 15 min on ice to probe for the bound peptides. Excess streptavidin-FITC was washed off with PBSA twice, and the macrophages were then resuspended in PBS for analysis by MACSQuant Flow Cytometer (Miltenyi Biotec, San Diego, Calif.). Propidium iodide was added to the samples before the data acquisition to discriminate dead cells. Flow cytometry data were analyzed with FlowJo Analysis Software (Tree Star, Ashland, Oreg.). Binding study of peptides post serum incubation was similarly performed with the following additions: The peptides (5 mM stock solution in H2O) were diluted in serum to a final concentration of 0.5 mM and incubated at 37° C. in an incubator. At each time point, an aliquot of the peptides was drawn and diluted in PBS to the final concentration for the binding study. The diluted aliquot was heated at 80° C. for 30 min to inactivate serum proteins, stored in a −20° C. freezer, and thawed for use in the binding study after aliquots at all time points were collected.
All animal handling protocols were approved by the University of Washington Institutional Animal Care and Use Committee. Bone marrow-derived cells were harvested from female c57bl/6 mice as previously described. In brief, femurs and tibias of the mice were excised and flushed with RPMI 1640 medium via an 18G needle. The cells were cultured on petri dishes containing RPMI 1640 medium supplemented with 20% donor horse serum, 1% antibioticantimycotic (AbAm), and 20 ng/mL M-CSF. After 7 d in culture, the medium was replaced with an activation medium whereby M-CSF was replaced with 25 ng/mL IFN-γ and 100 ng/mL LPS for M1 activation or with 25 ng/mL IL-4 for M2 activation. For M1 activation medium, AbAm was replaced with 1% penicillin-streptomycin (Pen-Strep). After 2 d of activation, the activated macrophages were scraped off the petri dishes for binding studies.
Biotinylated peptide stock solutions were prepared in H2O at 10 mg/mL concentration and quantified for the exact concentration using Quant*Tag Biotin quantification kit. The stock solutions were diluted in PBS with 1% BSA (PBSA) to different concentrations for binding studies. Activated macrophages were seeded on a black 96-well plate (50,000 cells/well) and incubated with the peptide solutions for 20 min on ice. The cells were washed twice with PBSA and subsequently incubated with streptavidin-FITC for 15 min on ice. After two additional washes, the cells were resuspended in PBS for analysis via MACSQuant Flow Cytometer (Miltenyi Biotec, San Diego, Calif.). Propidium iodide (PI) was added before running each sample to assess for cell viability. Data analysis was processed on FlowJo Analysis Software (Tree Star, Ashland, Oreg.). […]

[2] = Serum stability study in normal mouse serum, analysis by MALDI-TOF MS; details: for overall serum stability (in words): MALDI-TOF MS
Procedure: The peptide of interest (30 μL of 10 mg/mL stock solution in dH2O) was added to normal mouse serum (300 μL) and incubated at 37° C. in an incubator. At each time point, an aliquot of 40 μL was drawn and an equal volume of ACN was added to the aliquot to precipitate serum proteins. The cloudy mixture was centrifuged at 10,000 rpm for 5 min and then supernatant removed. A solution of 1:1 H2O/ACN (80 μL) was added to the pellet and sonicated for 10 min to further extract the remaining peptides. This resuspended mixture was then centrifuged, and the supernatant was pooled with the former and vacuum-dried on a Speedvac machine. The dried pellet was solubilized in H2O (50 μL) by sonication for 10 min. The mixture was then centrifuged, and the supernatant was drawn and analyzed by MALDI-TOF MS.
To evaluate serum stability of M2pep, the peptide was incubated in mouse serum, and aliquots of the serum at various time points were withdrawn for analysis of degradation patterns by MALDI-TOF MS.
Different M2pep analogs (30 μL from 10 mg/mL stock solution in H2O) were incubated in normal mouse serum (300 μL) at 37° C. in an incubator. An aliquot of the serum (40 μL) was drawn at different time intervals and precipitated with an equal volume of cold ACN. The mixture was centrifuged at 15,000 rpm for 5 min, and the supernatant was collected. A solution of H2O/ACN (1:1 v/v, 80 μL) was added to the pellet with a 10-min sonication to further extract residual peptides. The mixture was then centrifuged. The supernatant was pooled with the former and dried under vacuum on a Speedvac machine. The peptide pellet was resuspended in H2O (50 μL) with a 10-min sonication before analysis by MALDI-ToF MS.

M2 macrophages [3] = experiment: Binding of M2pep analogs post serum incubation; type: cell-based, mouse; details: for decline in binding activity with serum pre-incubation: 150 μM of M2pepBiotin, 50 μM of AcM2pep(RY)Biotin and cyclic M2pep(RY)Biotin, mouse serum 37° C.
Procedure: as §1
For TAM targeting applications, M2pep analogs will be exposed to serum during systemic circulation. Therefore, we next studied how the serum stability of M2pep analogs affects subsequent binding to target cells. Peptides were incubated with mouse serum at 37° C. to mimic peptidase exposure in systemic circulation, and aliquots of the serum were withdrawn at various time points for binding studies with polarized macrophages. In general, binding activity of the M2pep analogs corresponded with the peptides' serum stability (FIG. 6). […]

| SMILES | binding activity to M2 macrophages (in words) (M2 macrophages [1]) | serum stability at the W10/W11 endolytic cleavage site ([2]; mouse serum) | decline in binding activity with serum pre-incubation (M2 macrophages [3]) | overall serum stability (in words) ([2]; mouse serum, 37° C.) | also measured |
| --- | --- | --- | --- | --- | --- |
| CC(=O)N[C@@H](Cc1ccc(O)cc1)C(=O)N[C@@H](CCC(=O)O)C(=O)N[C@@H](CCC(N)=O)C(=O)N[C@@H](CC(=O)O)C(=O)N1CCC[C@H]1C(=O)N[C@@H](Cc1c[nH]c2ccccc12)C(=O)NCC(=O)N[C@H](C(=O)N[C@@H](CCCCN)C(=O)N1CCC[C@H]1C(=O)N[C@@H](Cc1c[nH]c2ccccc12)C(=O)N[C@@H](Cc1ccc(O)cc1)C(=O)NCC(=O)NCC(=O)NCC(=O)N[C@@H](CO)C(=O)N[C@H](CCCCN)C(=O)N[C@H](CCCCN)C(=O)N[C@H](CCCCN)C(=O)N[C@@H](CCCCNC(=O)CCCC[C@@H]1SC[C@@H]2NC(=O)N[C@@H]21)C(N)=O)C(C)C [W10P, Ac-YEQDPWGVKPWYGGGSkkk] (Ac-YEQDPWGVKPWYGGGS[dK][dK][dK]K(Biotin)-NH2) | abrogated the binding activity | did not confer protection at the W10/W11 site | – | – | – |
| CC(C)[C@H](NC(=O)CNC(=O)[C@H](Cc1c[nH]c2ccccc12)NC(=O)[C@@H]1CCCN1C(=O)[C@H](CC(=O)O)NC(=O)[C@H](CCC(N)=O)NC(=O)[C@H](CCC(=O)O)NC(=O)[C@@H](N)Cc1ccc(O)cc1)C(=O)N[C@@H](CCCCN)C(=O)N[C@@H](Cc1c[nH]c2ccccc12)C(=O)N[C@@H](Cc1c[nH]c2ccccc12)C(=O)N[C@@H](Cc1ccc(O)cc1)C(=O)NCC(=O)NCC(=O)NCC(=O)N[C@@H](CO)C(=O)N[C@@H](CCCCN)C(=O)N[C@@H](CCCCN)C(=O)N[C@@H](CCCCNC(=O)CCCC[C@@H]1SC[C@@H]2NC(=O)N[C@@H]21)C(N)=O [M2pepBiotin, YEQDPWGVKWWYGGGSKK] | – | – | fastest and greatest decline in binding activity | Poor serum stability | Kd (M2 macrophages [1]): 220 µM |
| CC(=O)N[C@@H](Cc1ccc(O)cc1)C(=O)N[C@@H](CCC(=O)O)C(=O)N[C@@H](CCC(N)=O)C(=O)N[C@@H](CC(=O)O)C(=O)N1CCC[C@H]1C(=O)N[C@@H](Cc1c[nH]c2ccccc12)C(=O)NCC(=O)N[C@H](C(=O)N[C@@H](CCCNC(=N)N)C(=O)N[C@@H](Cc1c[nH]c2ccccc12)C(=O)N[C@@H](Cc1c[nH]c2ccccc12)C(=O)N[C@@H](Cc1ccc(O)cc1)C(=O)NCC(=O)NCC(=O)NCC(=O)N[C@@H](CO)C(=O)N[C@@H](CCCCN)C(=O)N[C@@H](CCCCN)C(=O)N[C@@H](CCCCN)C(=O)N[C@@H](CCCCNC(=O)CCCC[C@@H]1SC[C@@H]2NC(=O)N[C@@H]21)C(N)=O)C(C)C [K9R, Ac-YEQDPWGVRWWYGGGSKKK] | significantly increased binding activity | did not confer protection at the W10/W11 site | – | – | – |
| CC(=O)N[C@@H](Cc1ccc(O)cc1)C(=O)N[C@@H](CCC(=O)O)C(=O)N[C@@H](CCC(N)=O)C(=O)N[C@@H](CC(=O)O)C(=O)N1CCC[C@H]1C(=O)N[C@@H](Cc1c[nH]c2ccccc12)C(=O)NCC(=O)N[C@H](C(=O)N[C@@H](CCCNC(=N)N)C(=O)N[C@@H](Cc1ccc(O)cc1)C(=O)N[C@@H](Cc1c[nH]c2ccccc12)C(=O)N[C@@H](Cc1ccc(O)cc1)C(=O)NCC(=O)NCC(=O)NCC(=O)N[C@@H](CO)C(=O)N[C@H](CCCCN)C(=O)N[C@H](CCCCN)C(=O)N[C@H](CCCCN)C(=O)N[C@@H](CCCCNC(=O)CCCC[C@@H]1SC[C@@H]2NC(=O)N[C@@H]21)C(N)=O)C(C)C [AcM2pep(RY)Biotin, Ac-YEQDPWGVRYWYGGGSkkk] (Ac-YEQDPWGVRYWYGGGS[dK][dK][dK]K(Biotin)-NH2) | did not improve the binding activity any further compared to the K9R analog; also recorded: highest affinity linear M2pep analog | did not improve serum stability at the W10/W11 site | – | – | – |
| CC(C)[C@@H]1NC(=O)CNC(=O)[C@H](Cc2c[nH]c3ccccc23)NC(=O)[C@@H]2CCCN2C(=O)[C@H](CC(=O)O)NC(=O)[C@H](CCC(N)=O)NC(=O)[C@H](CCC(=O)O)NC(=O)[C@H](Cc2ccc(O)cc2)NC(=O)CNC(=O)[C@@H](N)CSSC[C@@H](C(=O)N[C@H](CCCCN)C(=O)N[C@H](CCCCN)C(=O)N[C@H](CCCCN)C(=O)N[C@@H](CCCCNC(=O)CCCC[C@@H]2SC[C@@H]3NC(=O)N[C@@H]32)C(N)=O)NC(=O)CNC(=O)[C@H](Cc2ccc(O)cc2)NC(=O)[C@H](Cc2c[nH]c3ccccc23)NC(=O)[C@H](Cc2ccc(O)cc2)NC(=O)[C@H](CCCNC(=N)N)NC1=O [cyclic M2pep(RY)Biotin, CGYEQDPWGVRYWYGCkkk] (H-CGYEQDPWGVRYWYGC[dK][dK][dK]K(Biotin)-NH2; disulfide 1-16) | comparable binding activity to the linear AcM2pep(RY)Biotin | – | least decline | markedly improved serum stability over the linear AcM2pep(RY)Biotin | Kd (M2 macrophages [1]; listed as disulfide-cyclized M2pep(RY)): 36.3 µM; binding activity after 24 h serum incubation (M2 macrophages [3]; 24 h in mouse serum at 37° C.): retained the highest binding activity; serum incubation time at which the peptide remained detectable by MALDI-TOF MS ([2]; mouse serum, 37° C.): ≥ 48 h; time without endolytic cleavage at the W10/W11 site ([2]; mouse serum, 37° C.): at least 8 h; incubation in mouse serum after which the cyclized peptide was eventually degraded ([2]; prolonged incubation in mouse serum): more than 1 day |
| CC(=O)N[C@@H](Cc1ccc(O)cc1)C(=O)N[C@@H](CCC(=O)O)C(=O)N[C@@H](CCC(N)=O)C(=O)N[C@@H](CC(=O)O)C(=O)N1CCC[C@H]1C(=O)N[C@@H](Cc1c[nH]c2ccccc12)C(=O)NCC(=O)N[C@H](C(=O)N[C@@H](CCCCN)C(=O)N[C@@H](Cc1c[nH]c2ccccc12)C(=O)N[C@@H](Cc1c[nH]c2ccccc12)C(=O)N[C@@H](Cc1ccc(O)cc1)C(=O)NCC(=O)NCC(=O)NCC(=O)N[C@@H](CO)C(=O)N[C@@H](CCCCN)C(=O)N[C@@H](CCCCN)C(=O)N[C@@H](CCCCN)C(=O)N[C@@H](CCCCNC(=O)CCCC[C@@H]1SC[C@@H]2NC(=O)N[C@@H]21)C(N)=O)C(C)C [AcM2pepBiotin, Ac-YEQDPWGVKWWYGGGSKKK] | slight, but not statistically significant, reduction in binding activity | – | – | did not improve the overall serum stability | binding selectivity to M2 macrophages over M1 macrophages (M2 macrophages [1]; M2 versus M1 macrophages): retained binding selectivity to M2 macrophages over M1 macrophages; N-terminal (exolytic) degradation in serum ([2]; mouse serum): resistant to N-terminal degradation |
